Laboratory results as given in PMC10726367 (Journal of Medicinal Chemistry, 2023).
One block for each compound: values may come before it.

Target: T1, RyR2 (Mus musculus, UniProt E9Q401)
T1 construct: expressed in transfected cells; host or cells: HEK-293 cells stably expressing R-CEPIA1er with doxycycline-inducible WT RyR2
Experiment: Time-lapse [Ca2+]ER assay (RyR2 R-CEPIA1er assay) in HEK-293 cells with inducible WT RyR2
Format: cell-based
Details: for RyR2 effect class: 25 μM (S107 1 mM per Figure 2); for RyR2 effect class / EC50: HEK-293 RyR2 R-CEPIA1er cells; for EC50: value, interval; for effect on [Ca2+]ER / R-CEPIA1er fluorescence (F/F0): 25 μM, vs 0.1 v/v% DMSO
From the text: To assess the functional potency of novel agents for modulating RyR2 channel activity, we measured changes in Ca^2+ levels in ER of HEK-293 cells with inducible expression of wild-type RyR2 (WT RyR2).[33],[34] Because the expression of WT RyR2 introduces an additional spontaneous Ca^2+ leak from the ER, these cells are suitable for our purpose of testing potential RyR2 stabilizers.[35] The cells additionally stably express the Ca^2+ fluorescence indicator R-CEPIA1er, which is a genetically encoded sensor protein of Ca^2+ in the ER (the cell line was a gift from T. Murayama, Department of Pharmacology, Juntendo University School of Medicine, Tokyo, Japan).[36]
The addition of these compounds, which are known to inhibit excessive cardiac RyR2 activity, should reduce Ca^2+ leak from the ER, thus increasing the R-CEPIA1er fluorescence.
The fluorescence plate reader [Ca^2+]ER assay was performed according to the slightly modified protocol of Murayama and Kurebayashi.[36] […] After the cells were inducted with doxycycline for 24 h, changes in ER calcium concentrations [Ca^2+]ER were measured on a multiwell plate reader TECAN Spark 20 M at 37 °C. The 1000 × stock solutions of the test compounds were prepared in DMSO. Briefly, the culture medium was removed and 100 μL of Tyrode’s solution containing 2 mM CaCl2 was added to the cells. The time courses were recorded in each well. Fluorescence was evoked by a 560 nm excitation wavelength and collected in a bottom-read mode at 610 nm. Data was recorded every 10 s, exposure −20 flashes, excitation bandwidth −20 nm, emission bandwidth −20 nm. 100 μL of 0–100 μM solution of test compound in Tyrode’s solution containing 2 mM CaCl2 was injected in each well (speed 100 μL/s) at the 90 s time point. […] The 0.1 v/v% DMSO and 2 mM CaCl2 Tyrode’s solution was used as a control.
The dose–response curves were calculated using the software package GraphPad Prism version 8.3.1. (GraphPad Software, Inc.). All data are presented as mean ± SD in three independent experiments. Y = bottom + (top – bottom)/(1 + 10^((LogEC50 – X) × HillSlope)) was used, where HillSlope describes the steepness of the curve, and top and bottom are plateaus in the units of the Y-axis.

T1 sequence (E9Q401 whole entry): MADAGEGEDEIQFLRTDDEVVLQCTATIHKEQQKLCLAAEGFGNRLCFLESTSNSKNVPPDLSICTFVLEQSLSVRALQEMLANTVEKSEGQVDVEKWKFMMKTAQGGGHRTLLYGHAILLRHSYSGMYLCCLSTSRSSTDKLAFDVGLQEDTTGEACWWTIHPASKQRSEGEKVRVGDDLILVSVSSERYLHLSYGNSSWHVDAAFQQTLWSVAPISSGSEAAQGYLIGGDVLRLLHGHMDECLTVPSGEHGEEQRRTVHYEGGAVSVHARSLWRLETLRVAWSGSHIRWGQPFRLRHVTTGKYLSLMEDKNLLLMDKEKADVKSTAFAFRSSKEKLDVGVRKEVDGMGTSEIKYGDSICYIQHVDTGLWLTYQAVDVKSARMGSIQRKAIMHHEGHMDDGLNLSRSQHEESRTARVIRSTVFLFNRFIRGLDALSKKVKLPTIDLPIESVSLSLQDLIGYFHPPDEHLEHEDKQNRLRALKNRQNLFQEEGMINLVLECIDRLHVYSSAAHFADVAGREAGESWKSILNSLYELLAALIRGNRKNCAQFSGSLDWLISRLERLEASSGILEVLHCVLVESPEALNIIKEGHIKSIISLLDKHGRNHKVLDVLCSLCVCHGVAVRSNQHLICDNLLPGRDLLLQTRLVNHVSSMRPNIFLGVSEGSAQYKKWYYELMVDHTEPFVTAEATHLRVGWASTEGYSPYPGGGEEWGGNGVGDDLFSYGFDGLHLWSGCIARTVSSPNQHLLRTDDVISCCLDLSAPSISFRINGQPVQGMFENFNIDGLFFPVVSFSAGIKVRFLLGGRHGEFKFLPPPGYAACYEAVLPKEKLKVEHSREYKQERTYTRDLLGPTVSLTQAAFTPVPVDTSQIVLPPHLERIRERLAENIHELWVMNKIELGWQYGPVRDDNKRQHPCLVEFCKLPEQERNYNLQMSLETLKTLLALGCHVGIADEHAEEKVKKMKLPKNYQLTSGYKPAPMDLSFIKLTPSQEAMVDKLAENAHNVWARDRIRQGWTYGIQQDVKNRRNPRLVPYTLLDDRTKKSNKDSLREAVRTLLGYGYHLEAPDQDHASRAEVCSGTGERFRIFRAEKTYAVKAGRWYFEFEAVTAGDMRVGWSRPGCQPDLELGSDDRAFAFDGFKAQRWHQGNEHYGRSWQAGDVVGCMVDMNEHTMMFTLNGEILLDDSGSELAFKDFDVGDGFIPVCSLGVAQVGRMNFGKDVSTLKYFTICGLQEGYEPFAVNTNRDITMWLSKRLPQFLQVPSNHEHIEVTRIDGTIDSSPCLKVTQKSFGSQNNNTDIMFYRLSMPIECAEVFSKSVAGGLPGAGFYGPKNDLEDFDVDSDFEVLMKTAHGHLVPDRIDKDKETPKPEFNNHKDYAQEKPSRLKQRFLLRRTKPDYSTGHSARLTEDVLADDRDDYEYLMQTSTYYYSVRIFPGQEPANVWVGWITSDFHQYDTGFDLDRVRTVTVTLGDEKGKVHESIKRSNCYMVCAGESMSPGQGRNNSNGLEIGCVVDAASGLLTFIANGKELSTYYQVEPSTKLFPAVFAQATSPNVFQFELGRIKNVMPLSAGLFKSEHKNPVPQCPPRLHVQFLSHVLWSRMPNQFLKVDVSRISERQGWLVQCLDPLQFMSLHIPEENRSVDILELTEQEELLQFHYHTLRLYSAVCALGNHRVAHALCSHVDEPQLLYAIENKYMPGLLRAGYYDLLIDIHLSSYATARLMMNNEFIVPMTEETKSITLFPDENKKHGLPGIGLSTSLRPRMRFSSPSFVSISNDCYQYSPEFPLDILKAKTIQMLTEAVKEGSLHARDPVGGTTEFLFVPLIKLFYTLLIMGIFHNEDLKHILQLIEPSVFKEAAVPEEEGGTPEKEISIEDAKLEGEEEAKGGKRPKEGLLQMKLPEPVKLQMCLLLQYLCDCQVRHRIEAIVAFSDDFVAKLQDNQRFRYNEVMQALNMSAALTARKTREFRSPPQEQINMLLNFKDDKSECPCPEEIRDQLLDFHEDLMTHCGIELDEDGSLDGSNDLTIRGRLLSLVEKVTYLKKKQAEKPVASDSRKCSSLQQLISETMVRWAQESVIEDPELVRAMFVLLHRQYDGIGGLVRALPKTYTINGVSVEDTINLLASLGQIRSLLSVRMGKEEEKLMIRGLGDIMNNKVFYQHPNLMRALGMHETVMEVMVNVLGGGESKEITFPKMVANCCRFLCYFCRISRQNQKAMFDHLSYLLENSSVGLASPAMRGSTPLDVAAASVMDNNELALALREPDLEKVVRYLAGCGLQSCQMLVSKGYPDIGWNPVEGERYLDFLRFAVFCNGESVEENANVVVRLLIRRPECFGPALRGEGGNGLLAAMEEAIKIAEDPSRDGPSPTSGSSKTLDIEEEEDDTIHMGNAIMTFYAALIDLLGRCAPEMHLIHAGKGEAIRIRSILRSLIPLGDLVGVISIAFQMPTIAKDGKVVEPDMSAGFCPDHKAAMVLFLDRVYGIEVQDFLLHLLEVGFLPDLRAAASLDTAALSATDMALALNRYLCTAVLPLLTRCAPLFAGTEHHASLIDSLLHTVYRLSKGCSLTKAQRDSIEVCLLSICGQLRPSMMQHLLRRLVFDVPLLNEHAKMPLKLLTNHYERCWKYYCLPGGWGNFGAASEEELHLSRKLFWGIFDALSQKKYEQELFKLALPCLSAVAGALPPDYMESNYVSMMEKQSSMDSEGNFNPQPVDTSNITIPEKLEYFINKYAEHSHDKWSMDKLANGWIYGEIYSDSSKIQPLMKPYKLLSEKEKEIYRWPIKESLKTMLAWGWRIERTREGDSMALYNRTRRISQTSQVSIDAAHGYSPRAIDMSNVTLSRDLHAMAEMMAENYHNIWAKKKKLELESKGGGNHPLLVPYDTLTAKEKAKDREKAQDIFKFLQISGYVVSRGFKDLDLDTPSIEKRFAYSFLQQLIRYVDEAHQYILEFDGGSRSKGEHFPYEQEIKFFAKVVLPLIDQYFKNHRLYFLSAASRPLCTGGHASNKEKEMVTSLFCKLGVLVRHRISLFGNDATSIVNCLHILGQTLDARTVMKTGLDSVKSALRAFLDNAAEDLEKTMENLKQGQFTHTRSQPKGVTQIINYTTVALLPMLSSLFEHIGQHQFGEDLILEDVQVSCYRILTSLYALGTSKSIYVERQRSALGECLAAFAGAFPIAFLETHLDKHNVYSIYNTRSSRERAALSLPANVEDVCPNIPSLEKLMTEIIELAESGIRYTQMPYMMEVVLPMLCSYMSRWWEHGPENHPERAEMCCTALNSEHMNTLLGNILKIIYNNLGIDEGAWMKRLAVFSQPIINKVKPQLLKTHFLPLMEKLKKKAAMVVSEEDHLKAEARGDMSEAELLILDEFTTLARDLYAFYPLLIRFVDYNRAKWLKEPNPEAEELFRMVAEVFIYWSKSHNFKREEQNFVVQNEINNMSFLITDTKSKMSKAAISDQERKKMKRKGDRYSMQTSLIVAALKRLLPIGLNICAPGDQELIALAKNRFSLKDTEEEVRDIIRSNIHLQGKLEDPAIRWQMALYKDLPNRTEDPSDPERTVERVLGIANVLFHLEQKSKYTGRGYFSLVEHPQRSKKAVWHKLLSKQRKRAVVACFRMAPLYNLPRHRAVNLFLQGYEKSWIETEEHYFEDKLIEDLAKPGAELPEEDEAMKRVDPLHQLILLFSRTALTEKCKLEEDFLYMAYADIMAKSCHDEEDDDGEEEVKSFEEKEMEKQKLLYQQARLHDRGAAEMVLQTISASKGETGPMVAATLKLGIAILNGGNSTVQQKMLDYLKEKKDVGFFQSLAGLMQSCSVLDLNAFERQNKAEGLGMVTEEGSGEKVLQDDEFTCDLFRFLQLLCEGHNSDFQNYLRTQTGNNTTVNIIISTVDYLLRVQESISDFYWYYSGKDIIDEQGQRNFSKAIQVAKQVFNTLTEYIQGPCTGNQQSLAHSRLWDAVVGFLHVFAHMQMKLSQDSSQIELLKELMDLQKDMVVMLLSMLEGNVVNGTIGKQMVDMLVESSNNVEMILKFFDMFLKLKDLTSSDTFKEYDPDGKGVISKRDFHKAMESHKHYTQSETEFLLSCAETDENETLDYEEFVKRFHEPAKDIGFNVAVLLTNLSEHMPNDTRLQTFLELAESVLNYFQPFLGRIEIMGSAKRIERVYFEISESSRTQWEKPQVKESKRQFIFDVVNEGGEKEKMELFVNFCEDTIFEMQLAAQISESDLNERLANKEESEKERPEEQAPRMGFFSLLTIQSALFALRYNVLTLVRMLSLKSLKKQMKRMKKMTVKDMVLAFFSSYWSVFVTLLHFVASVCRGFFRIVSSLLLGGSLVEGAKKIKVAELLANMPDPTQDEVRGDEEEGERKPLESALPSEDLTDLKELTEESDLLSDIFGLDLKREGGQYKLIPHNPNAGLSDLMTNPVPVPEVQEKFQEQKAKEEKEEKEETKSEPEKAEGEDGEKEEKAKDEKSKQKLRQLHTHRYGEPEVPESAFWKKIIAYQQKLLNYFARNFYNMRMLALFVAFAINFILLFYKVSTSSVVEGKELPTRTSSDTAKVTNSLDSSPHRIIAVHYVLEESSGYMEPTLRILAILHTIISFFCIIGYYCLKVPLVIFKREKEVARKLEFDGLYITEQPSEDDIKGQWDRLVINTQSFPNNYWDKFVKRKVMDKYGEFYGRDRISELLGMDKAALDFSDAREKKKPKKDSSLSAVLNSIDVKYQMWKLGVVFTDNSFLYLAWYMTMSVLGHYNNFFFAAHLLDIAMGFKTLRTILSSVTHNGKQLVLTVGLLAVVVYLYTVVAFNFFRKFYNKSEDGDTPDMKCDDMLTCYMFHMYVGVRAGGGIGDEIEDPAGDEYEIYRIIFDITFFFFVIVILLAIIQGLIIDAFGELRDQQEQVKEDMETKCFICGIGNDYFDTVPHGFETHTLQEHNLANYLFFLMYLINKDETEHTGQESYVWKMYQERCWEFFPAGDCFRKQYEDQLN

SMILES: COc1ccc2c(c1)CN(CCCCNCCCCC1(O)CC1)CCS2 [11a, 1-(4-((4-(7-Methoxy-2,3-dihydrobenzo[1,4-f]thiazepin-4(5H)-yl)butyl)amino)butyl)cyclopropan-1-ol]
RyR2 effect class: ++

SMILES: COc1ccc(OCCCNCCCCC2(O)CC2)cc1 [11b, 1-(4-((3-(4-Methoxyphenoxy)propyl)amino)butyl)cyclopropan-1-ol]
RyR2 effect class: +++
EC50: 81.5 nM

SMILES: COc1ccc(SCCCNCCCCC2(O)CC2)cc1 [11c, 1-(4-((3-((4-Methoxyphenyl)thio)propyl)amino)butyl)cyclopropan-1-ol]
RyR2 effect class: ++
EC50: 10.2 nM

SMILES: COc1ccc2c(c1)CN(CCCCC1(O)CC1)CCS2 [11d, 1-(4-(7-Methoxy-2,3-dihydrobenzo[1,4-f]thiazepin-4(5H)-yl)butyl)cyclopropan-1-ol]
effect on [Ca2+]ER / R-CEPIA1er fluorescence (F/F0): no significant RyR2-stabilizing effect

Now from value to compound, other results behind:

RyR2 effect class: +++
SMILES: COc1ccc2c(c1)CN(CCCCN(CCCCC1(O)CC1)CCCCC1(O)CC1)CCS2 [12a, 1,1′-(((4-(7-Methoxy-2,3-dihydrobenzo[1,4-f]thiazepin-4(5H)-yl)butyl)azanediyl)bis(butane-4,1-diyl))bis(cyclopropan-1-ol)]
dose response of F/F0 ([Ca2+]ER) (concentration range 10^–11 to 10^–4 M): most pronounced effect of all of the other compounds

RyR2 effect class: +
EC50: 18.6 nM
SMILES: COc1ccc(SCCCN(CCCCC2(O)CC2)CCCCC2(O)CC2)cc1 [12c, 1,1′-(((3-((4-Methoxyphenyl)thio)propyl)azanediyl)bis(butane-4,1-diyl))bis(cyclopropan-1-ol)]

RyR2 effect class: ++
effect on [Ca2+]ER / R-CEPIA1er fluorescence (F/F0): significantly increased [Ca^2+]ER
SMILES: COc1ccc2c(c1)CN(Cc1ccc(C(=O)O)cc1)CCS2 [ARM210, reference compound]
